# “Also recorded” adds a separate entry of the source.
# Key:
# OVCAR-3 cells = assay: Cell cycle by EdU flow cytometry (dose, time, washout, tracing); format: cell-based, human
# Experimental: Cells were plated at 100,000 cells/well in Corning 6 cm tissue culture treated plates. […] Cells were collected and fixed in 1% paraformaldehyde. Cells were incubated with Alexa488 azide dye as described by Thermo Scientific. Cells were then incubated with Fxcycle-violet and RNase. Cells were analyzed on a BD Celesta and data compiled using FloJo and GraphPad.
# The OVCAR3 human ovarian carcinoma cell line was grown in RPMI-1640/1× Glutamax/1× Insulin/10% fetal bovine serum and was plated at 300,000 cells/well in Corning 6 cm tissue culture treated plates. […] Cells were treated for the indicated amount of time (24 hours or 48 hours), with 10 μM EdU added for the last hour of treatment. Cells were collected and fixed in 1% paraformaldehyde. Cells were incubated with Alexa 488 (A488) azide dye as described by Thermo Scientific. Cells were then incubated with FarRed dye and RNase. Cells were analyzed on a BD Celesta and data compiled using FloJo and GraphPad Prism (FIG. 13A-B).
# The OVCAR3 human ovarian carcinoma cell line was grown in RPMI-1640/1× Glutamax/1× Insulin/10% fetal bovine serum and was plated at 300,000 cells/well in Corning 6 cm tissue culture treated plates. […] At 24 hours, the remaining plates were rinsed with media before un-treated media was added back. Cells were collected at the indicated times, with 10 μM EdU added for the last hour (FIG. 14A). Cells were collected and fixed in 1% paraformaldehyde. Cells were incubated with Pacific blue azide dye as described by Thermo Scientific. Cells were then incubated with FarRed dye and RNase. Cells were analyzed on a BD Celesta and data compiled using FloJo and GraphPad. […] By 18 hours, OVCAR-3 cells were in G2 or reentering G1. Cells appeared to remain somewhat synchronized over 48 hours.
# The OVCAR3 human ovarian carcinoma cell line was grown in RPMI-1640/1× Glutamax/1× Insulin/10% fetal bovine serum and was plated at 300,000 cells/well in Corning 6 cm tissue culture treated plates. […] Cells were divided into two sets. The first set was treated for the indicated amount of time, with 10 μM EdU added for the last hour of treatment before being collected. The second set of cells were treated for the indicated amount of time and had EdU added for one hour before the timepoint. Then the media was aspirated, the cells washed, and re-treated with treatment media. The second set of cells was collected at 48 hours, allowing for tracing of the EdU positive cells. Cells were collected and fixed in 1% paraformaldehyde. Cells were incubated with Alexa 488 (A488) azide dye as described by Thermo Scientific. Cells were then incubated with FarRed dye and RNase. Cells were analyzed on a BD Celesta and data compiled using FloJo and GraphPad. […] Several “snap shots” of cells at various timepoints, followed by where the cells from S phase ended up at the end of 48 hours of treatment, were collected. […] It appears that the cells in S phase at after 6 hours of treatment are arresting in G1 (FIG. 15B). At 24 hours of treatment, little to no cells were in S phase so there were no cells to trace (FIG. 15C). Although the DMSO sample appears largely different at 48 hours, the distribution appears similar to the DMSO, EdU free cells at 48 hours. […] (FIG. 15D).
# H82 (NCIH82) cells = assay: CellTiter Glo cell proliferation assay; format: cell-based; settings: six days
# Experimental: Plates returned to incubator for six additional days. On day six post dosing, plates were removed and treated with CellTiter Glo reagent following manufacturer's specifications. Plates incubated 45 minutes at room temperature and run on a Biotek luminometer with 1 sec/well detection. Results were converted to Microsoft Excel and transferred to GraphPad Prism for analysis.
# [1] = Respiratory safety pharmacology study; format: in vivo, rats; settings: any dose level
# Excerpt: Safety pharmacology studies described more fully below included a functional observational battery (FOB) testing in a 28-day repeat-dose toxicity study in rats, electrocardiogram (ECG) evaluations in a 28-day repeat-dose toxicity study in dogs, and a single-dose respiratory safety pharmacology study in rats.
# Plasma protein binding = format: in vitro ADME; settings: across all species tested, read-out: bound to plasma proteins
# [2] = test system: SA-beta galactosidase in LYR and LYFR cells; assay: Senescence-associated beta-galactosidase staining; format: cell-based; settings: with abemaciclib and/or fulvestrant, 5 days
# Experimental: Briefly, cells were plated at low density and treated with the agents described for 5 days. A senescence detection kit was used to stain for SA-beta galactosidase (FIG. 148A-148D).
structure (smiles),measurement,setting,value
NS(=O)(=O)c1ccc(Nc2ncc3cc4n(c3n2)C2(CCCCC2)C(=O)NN4)cc1 [Compound I],cell cycle distribution with increasing concentrations,"OVCAR-3 cells; 10 nM to 10 μM, 24 hours",exit the S-phase and increasingly occupy the G0-G1 phase
same,G1 arrest over 48 h,OVCAR-3 cells; 100 nM,does not arrest all cells in G1
same,G1 arrest over 48 h,OVCAR-3 cells; 300 nM,performs just as well
same,cells arrested in G1,"OVCAR-3 cells; 300 nM, 24 hours",Approximately 80%
same,cells proceeding to S phase compared with PF-07104091,"OVCAR-3 cells; 1, 6, 24 and 48 hours of treatment",permits fewer cells to proceed to S phase
same,fate of cells in S phase at treatment initiation (EdU tracing),OVCAR-3 cells; traced to 48 hours,become arrested in G1
same,inhibition compared with palbociclib,H82 (NCIH82) cells,low nanomolar concentrations
same,respiratory function,[1],did not affect; also recorded: not affected
same,fraction unbound,Plasma protein binding,< 0.056
same,beta galactosidase staining,[2],significantly increased beta galactosidase staining
